# According to ChEMBL document CHEMBL1129190, “Solid-phase parallel synthesis applied to lead optimization: Discovery of potent analogues of the GPIIb/IIIa antagonist RWJ-50042” (Bioorg Med Chem Lett, 1996):
# Biological target: Integrin alpha-IIb/beta-3 (Homo sapiens, UniProt P05106+P08514)
# Test: In vitro inhibition of biotinylated fibrinogen binding to immobilized integrin alpha IIb beta3
# Assay type: protein-complex assay
# Chain of Integrin alpha-IIb/beta-3 (P05106 27-788 limits assumed): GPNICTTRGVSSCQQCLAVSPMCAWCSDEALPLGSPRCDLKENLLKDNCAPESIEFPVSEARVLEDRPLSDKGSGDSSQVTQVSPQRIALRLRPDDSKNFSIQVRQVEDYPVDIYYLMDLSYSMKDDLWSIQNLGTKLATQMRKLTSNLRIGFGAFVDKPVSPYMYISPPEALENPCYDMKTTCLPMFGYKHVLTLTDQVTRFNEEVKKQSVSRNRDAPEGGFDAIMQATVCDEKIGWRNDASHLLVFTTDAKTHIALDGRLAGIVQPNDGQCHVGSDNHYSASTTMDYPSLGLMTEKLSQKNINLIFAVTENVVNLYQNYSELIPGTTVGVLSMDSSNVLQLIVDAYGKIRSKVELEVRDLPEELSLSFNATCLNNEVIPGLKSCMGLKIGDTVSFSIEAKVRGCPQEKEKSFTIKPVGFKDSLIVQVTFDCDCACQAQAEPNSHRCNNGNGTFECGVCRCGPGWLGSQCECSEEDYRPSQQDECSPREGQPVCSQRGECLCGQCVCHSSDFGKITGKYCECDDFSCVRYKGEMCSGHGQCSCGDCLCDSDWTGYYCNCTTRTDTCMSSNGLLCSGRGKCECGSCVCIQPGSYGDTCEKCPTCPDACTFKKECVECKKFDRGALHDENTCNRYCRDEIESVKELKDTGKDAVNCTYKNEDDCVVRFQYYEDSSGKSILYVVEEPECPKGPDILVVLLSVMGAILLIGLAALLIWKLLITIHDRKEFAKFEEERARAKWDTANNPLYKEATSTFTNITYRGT
# Chain of Integrin alpha-IIb/beta-3 (P08514 32-887 limits assumed): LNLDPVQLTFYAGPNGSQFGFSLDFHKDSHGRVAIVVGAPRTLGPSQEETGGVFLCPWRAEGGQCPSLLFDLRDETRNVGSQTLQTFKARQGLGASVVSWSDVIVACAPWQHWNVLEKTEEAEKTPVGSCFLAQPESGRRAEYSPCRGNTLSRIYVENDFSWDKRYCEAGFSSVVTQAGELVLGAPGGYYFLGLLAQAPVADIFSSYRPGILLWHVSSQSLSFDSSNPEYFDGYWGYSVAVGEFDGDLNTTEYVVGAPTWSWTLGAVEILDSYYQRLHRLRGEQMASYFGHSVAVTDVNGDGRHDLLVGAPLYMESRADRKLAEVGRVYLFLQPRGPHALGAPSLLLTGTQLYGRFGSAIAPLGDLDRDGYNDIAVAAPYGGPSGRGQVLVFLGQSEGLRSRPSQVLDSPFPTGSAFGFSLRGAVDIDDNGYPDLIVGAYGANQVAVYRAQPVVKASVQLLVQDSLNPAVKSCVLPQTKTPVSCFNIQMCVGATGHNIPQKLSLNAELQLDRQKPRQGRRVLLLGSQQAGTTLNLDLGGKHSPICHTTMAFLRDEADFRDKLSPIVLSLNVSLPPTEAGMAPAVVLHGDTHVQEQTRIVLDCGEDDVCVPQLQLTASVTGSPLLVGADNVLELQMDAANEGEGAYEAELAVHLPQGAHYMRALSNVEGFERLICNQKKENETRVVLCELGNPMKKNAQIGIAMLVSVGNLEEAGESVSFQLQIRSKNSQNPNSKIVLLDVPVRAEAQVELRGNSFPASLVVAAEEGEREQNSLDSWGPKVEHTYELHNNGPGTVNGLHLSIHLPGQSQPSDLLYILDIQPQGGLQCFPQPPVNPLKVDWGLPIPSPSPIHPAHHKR
# Chain of Integrin alpha-IIb/beta-3 (P08514 891-1039 limits assumed): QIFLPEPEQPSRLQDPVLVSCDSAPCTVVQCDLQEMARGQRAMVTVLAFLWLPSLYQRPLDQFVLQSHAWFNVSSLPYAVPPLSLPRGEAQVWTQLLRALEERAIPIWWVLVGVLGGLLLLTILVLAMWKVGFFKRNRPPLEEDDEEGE
row,Compound,IC50 [nM]
1,O=C(O)CCNC(=O)C1CCN(C(=O)CCC2CCNCC2)CC1,> 100
2,O=C(O)C[C@@H](C#Cc1ccccc1)NC(=O)[C@@H]1CCCN(C(=O)CCC2CCNCC2)C1,3
3,O=C(O)C1CCCC(NC(=O)C2CCCN(C(=O)CCC3CCNCC3)C2)C1 (centres undefined),> 50000
4,O=C(NCCS(=O)(=O)O)C1CCCN(C(=O)CCC2CCNCC2)C1 (centres undefined),200
5,O=C(O)C1CN(C(=O)C2CCCN(C(=O)CCC3CCNCC3)C2)CCC1=O (centres undefined),9
6,O=C(O)CCNC(=O)C1CCCCN(C(=O)CCC2CCNCC2)C1 (centres undefined),10
7,O=C(O)CCNC(=O)C1CCCN(C(=O)NCC2CCNCC2)C1 (centres undefined),20
8,O=C(O)CCNC(=O)C1CCCN(C(=O)OCC2CCNCC2)C1 (centres undefined),20
9,O=C(O)CCNC(=O)C1CCCN(C(=O)CCN2CCNCC2)C1 (centres undefined),2
10,O=C(O)CCNC(=O)C1CCCN(S(=O)(=O)CCC2CCNCC2)C1 (centres undefined),20
11,O=C(O)C[C@H](NC(=O)[C@@H]1CCCN(C(=O)CCC2CCNCC2)C1)c1cccs1,0.1
12,CN(CCC(=O)O)C(=O)C1CCCN(C(=O)CCC2CCNCC2)C1 (centres undefined),200
13,O=C(O)C[C@H](NC(=O)[C@@H]1CCCN(C(=O)CCC2CCNCC2)C1)c1cnc2ccccc2c1,0.1
14,O=C(NCCc1nnn[nH]1)C1CCCN(C(=O)CCC2CCNCC2)C1 (centres undefined),600
15,O=C(O)CCNC(=O)C1CCN(C(=O)CCC2CCNCC2)C1 (centres undefined),7

# Other lines, results leading:
row,IC50 [nM],Compound
1,6,O=C(O)CCNC(=O)C1CCCN(C(=O)CCC2CCNCC2)C1 (centres undefined)
2,3,COC(=O)C(CC(=O)O)NC(=O)C1CCCN(C(=O)CCC2CCNCC2)C1 (centres undefined)
3,3,CC(CC(=O)O)NC(=O)C1CCCN(C(=O)CCC2CCNCC2)C1 (centres undefined)
4,21,CC(C)(C)C#C[C@H](CC(=O)O)NC(=O)[C@@H]1CCCN(C(=O)CCC2CCNCC2)C1
5,5,O=C(O)C(O)CNC(=O)C1CCCN(C(=O)CCC2CCNCC2)C1 (centres undefined)
6,> 100,CC(CNC(=O)C1CCCN(C(=O)CCC2CCNCC2)C1)C(=O)O (centres undefined)
7,2,CC(C)CC(CC(=O)O)NC(=O)C1CCCN(C(=O)CCC2CCNCC2)C1 (centres undefined)
8,4,O=C(O)CCNC(=O)[C@H]1CCCN(C(=O)CCC2CCNCC2)C1
9,6,O=C(O)CCNC(=O)[C@@H]1CCCN(C(=O)CCC2CCNCC2)C1
